Measurements published in patent US12371428B2 (Exelixis, Inc., priority 2019, dated 2025).

Columns and labels:
[1] = target: Human MER (residues 528-999) (Homo sapiens (Human), UniProt Q12866); assay: Human Mer kinase assay, HTRF KinEase (Example C-2); format: biochemical; conditions: protocol of Example C-2 (other compounds)
In short: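 HTRF KinEase TK assay with MER 528-999 (1 ng/well) in enzymatic buffer plus 5 mM MgCl2 and 1 mM DTT, biotinylated peptide substrate and ATP at Km (40 μM), 3% DMSO final, 60 min at room temperature. Stopped with EDTA detection mix (SA-XL665, TK antibody-Eu3+), read at 665/620 nm after 60 min; IC50 from 10-point 4-parameter fit, normalized to DMSO and 1 μM reference.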

[2] = target: Mer (phospho-Mer, MERTK-transfected 293A cells) (Homo sapiens (Human), UniProt Q12866); assay: Mer autophosphorylation ELISA in transient transfected 293A cells (Example H); format: cell-based; conditions: cellular activity; Mer autophosphorylation ELISA in transient transfected 293A cells
In short: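 MERTK-transfected 293A; 8-pt dose, 1 h, serum-free, 0.3% DMSO. Cold lysis with orthovanadate and protease/phosphatase inhibitors. Phospho-Mer by DuoSet IC ELISA vs phospho-Mer standard. IC50: 4-PL fit; DMSO = 100%, reference inhibitor = 0%.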

[3] = target: Human KDR (residues 790-1356) (Homo sapiens (Human), UniProt P35968); assay: Human KDR kinase assay, HTRF KinEase (Example B-2); format: biochemical; conditions: protocol of Example B-2 (other compounds)
In short: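 Ten compound concentrations (3% DMSO final) were pre-plated, then KDR (790-1356) with biotinylated peptide in Mg/Mn/DTT buffer was added; ATP at Km (4.0 μM) started a 40 min room-temperature reaction. Detection used Eu-TK antibody and SA-XL665 in EDTA buffer; activity normalized to DMSO and reference inhibitor, IC50 by logistic fit.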

[4] = target: Human MET (residues 956-1390) (Homo sapiens (Human), UniProt P08581); assay: Human Met kinase assay, HTRF KinEase (Example D-2); format: biochemical; conditions: protocol of Example D-2 (other compounds); read-out: c-Met IC50
In short: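 HTRF KinEase assay on MET residues 956-1390 (0.1 ng/well) in buffer with 5 mM MgCl2, 1 mM DTT and 1 mM MnCl2, with biotinylated peptide substrate, ATP at Km, 10 compound concentrations and 3% DMSO final, run 40 min at room temperature. The […] signal was normalized to DMSO and to 1 μM reference compound, and IC50 came from a 4-parameter logistic fit.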

Human KDR (residues 790-1356), sequence (P35968 790-1356): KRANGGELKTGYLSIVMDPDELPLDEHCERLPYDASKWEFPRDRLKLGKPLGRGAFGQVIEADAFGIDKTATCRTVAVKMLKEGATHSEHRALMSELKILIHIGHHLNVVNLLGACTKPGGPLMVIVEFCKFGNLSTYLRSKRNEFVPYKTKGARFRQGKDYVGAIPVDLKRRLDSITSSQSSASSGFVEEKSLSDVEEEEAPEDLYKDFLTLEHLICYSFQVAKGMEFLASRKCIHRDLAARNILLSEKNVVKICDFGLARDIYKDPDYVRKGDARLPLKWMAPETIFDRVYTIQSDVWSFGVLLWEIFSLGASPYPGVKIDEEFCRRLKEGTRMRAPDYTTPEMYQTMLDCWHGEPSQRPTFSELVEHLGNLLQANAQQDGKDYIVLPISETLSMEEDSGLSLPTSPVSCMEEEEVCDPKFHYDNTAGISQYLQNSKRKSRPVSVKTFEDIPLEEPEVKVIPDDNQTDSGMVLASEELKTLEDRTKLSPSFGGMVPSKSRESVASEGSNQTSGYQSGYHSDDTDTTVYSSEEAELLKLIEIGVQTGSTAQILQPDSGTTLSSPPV
Human MER (residues 528-999), sequence (Q12866 528-999): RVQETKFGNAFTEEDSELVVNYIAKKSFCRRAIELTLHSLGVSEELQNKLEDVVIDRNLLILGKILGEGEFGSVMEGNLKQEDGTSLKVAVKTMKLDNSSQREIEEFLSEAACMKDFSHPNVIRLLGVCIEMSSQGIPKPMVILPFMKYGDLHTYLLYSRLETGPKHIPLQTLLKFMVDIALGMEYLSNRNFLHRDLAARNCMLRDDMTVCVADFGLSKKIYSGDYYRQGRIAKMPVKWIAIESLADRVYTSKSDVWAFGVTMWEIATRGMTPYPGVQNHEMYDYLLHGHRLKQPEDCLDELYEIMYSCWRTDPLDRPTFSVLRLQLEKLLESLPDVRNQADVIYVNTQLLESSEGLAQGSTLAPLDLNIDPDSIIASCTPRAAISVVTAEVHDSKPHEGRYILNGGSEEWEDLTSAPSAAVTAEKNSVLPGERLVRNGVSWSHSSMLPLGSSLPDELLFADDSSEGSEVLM
Mer (phospho-Mer, MERTK-transfected 293A cells), sequence (Q12866 21-999): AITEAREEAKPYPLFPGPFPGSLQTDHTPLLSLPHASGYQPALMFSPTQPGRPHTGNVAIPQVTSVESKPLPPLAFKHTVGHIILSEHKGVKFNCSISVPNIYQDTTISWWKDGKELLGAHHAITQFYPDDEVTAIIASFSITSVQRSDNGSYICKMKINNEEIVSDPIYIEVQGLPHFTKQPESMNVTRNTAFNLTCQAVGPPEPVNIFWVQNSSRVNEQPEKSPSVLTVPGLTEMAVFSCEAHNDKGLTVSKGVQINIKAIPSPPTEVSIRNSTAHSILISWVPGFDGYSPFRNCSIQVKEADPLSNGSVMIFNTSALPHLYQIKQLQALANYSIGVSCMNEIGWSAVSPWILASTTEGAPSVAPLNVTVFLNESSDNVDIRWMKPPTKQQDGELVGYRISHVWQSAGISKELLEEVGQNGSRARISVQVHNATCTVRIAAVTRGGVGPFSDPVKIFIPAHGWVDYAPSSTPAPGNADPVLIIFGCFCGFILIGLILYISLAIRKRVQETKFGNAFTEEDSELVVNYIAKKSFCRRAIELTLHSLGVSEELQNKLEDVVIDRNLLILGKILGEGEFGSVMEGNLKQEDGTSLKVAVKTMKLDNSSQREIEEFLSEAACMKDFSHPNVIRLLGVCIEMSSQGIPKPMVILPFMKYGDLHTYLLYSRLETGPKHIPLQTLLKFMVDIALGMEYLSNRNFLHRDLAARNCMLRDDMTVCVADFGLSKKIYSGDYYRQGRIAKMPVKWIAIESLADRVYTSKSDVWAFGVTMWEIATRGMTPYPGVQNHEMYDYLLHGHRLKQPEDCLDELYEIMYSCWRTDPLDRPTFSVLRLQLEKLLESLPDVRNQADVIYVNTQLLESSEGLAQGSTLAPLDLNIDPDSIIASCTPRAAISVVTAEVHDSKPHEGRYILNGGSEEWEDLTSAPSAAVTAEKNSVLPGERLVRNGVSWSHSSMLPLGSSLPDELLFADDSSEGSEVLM
Human MET (residues 956-1390), sequence (P08581 956-1390): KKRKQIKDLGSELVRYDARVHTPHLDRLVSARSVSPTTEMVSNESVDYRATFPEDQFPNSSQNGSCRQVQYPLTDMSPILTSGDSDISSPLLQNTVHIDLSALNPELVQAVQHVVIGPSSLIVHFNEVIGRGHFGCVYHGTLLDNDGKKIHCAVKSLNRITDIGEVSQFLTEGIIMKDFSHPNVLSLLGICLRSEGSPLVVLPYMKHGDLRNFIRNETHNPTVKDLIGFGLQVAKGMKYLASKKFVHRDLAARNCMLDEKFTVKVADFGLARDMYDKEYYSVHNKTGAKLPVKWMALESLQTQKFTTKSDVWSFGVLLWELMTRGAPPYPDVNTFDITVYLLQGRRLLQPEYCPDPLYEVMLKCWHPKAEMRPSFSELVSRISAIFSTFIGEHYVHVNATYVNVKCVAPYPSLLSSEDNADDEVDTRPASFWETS

IC50 [1] [nM] | IC50 [2] [nM] | IC50 [3] [nM] | IC50 [4] [nM] | SMILES
< 100 | < 100 | > 300 | 100 to 300 | COc1ccc2nccc(Oc3ccc(NC(=O)c4cn(C5CC5)c(C)c(-c5ccc(F)cc5C)c4=O)cc3F)c2n1 [Compound 441, 1-cyclopropyl-N-[3-fluoro-4-[(6-methoxy-1,5-naphthyridin-4-yl)oxy]phenyl]-5-(4-fluoro-2-methylphenyl)-6-methyl-4-oxopyridine-3-carboxamide]
< 100 | < 100 | < 100 | < 100 | COc1cc2nccc(Oc3ccc(NC(=O)c4c(C)nc(OC)c(-c5ccc(F)cc5)c4O)cc3F)c2nc1OC [Compound 442, N-[4-[(6,7-dimethoxy-1,5-naphthyridin-4-yl)oxy]-3-fluorophenyl]-5-(4-fluorophenyl)-4-hydroxy-6-methoxy-2-methylpyridine-3-carboxamide]
< 100 | < 100 | < 100 | < 100 | COc1cc2nccc(Oc3ccc(NC(=O)c4c(C)nc(O)c(-c5ccc(F)cc5)c4O)cc3F)c2nc1OC [Compound 443, N-[4-[(6,7-dimethoxy-1,5-naphthyridin-4-yl)oxy]-3-fluorophenyl]-5-(4-fluorophenyl)-4,6-dihydroxy-2-methylpyridine-3-carboxamide]
